Experimental data: patent US10166229B2, “Compounds and methods for the treatment of cancer” (The Board of Trustees of the University of Illinois, priority 2005, dated 2019)
“Also recorded” adds a separate entry of the source.

Assays:
[1] = system: MCF-7, breast cancer cells; experiment: Cell death IC50 in MCF-7; details: Homo sapiens, MCF7, read-out: IC50 for death induction, MCF-7
procaspase-3 [2] = molecular target: T1, procaspase-3 (Homo sapiens (Human), UniProt P42574); experiment: PAC-1 activation gel (Western blot of procaspase-3 cleavage); type: biochemical
T1 sequence (P42574 whole entry): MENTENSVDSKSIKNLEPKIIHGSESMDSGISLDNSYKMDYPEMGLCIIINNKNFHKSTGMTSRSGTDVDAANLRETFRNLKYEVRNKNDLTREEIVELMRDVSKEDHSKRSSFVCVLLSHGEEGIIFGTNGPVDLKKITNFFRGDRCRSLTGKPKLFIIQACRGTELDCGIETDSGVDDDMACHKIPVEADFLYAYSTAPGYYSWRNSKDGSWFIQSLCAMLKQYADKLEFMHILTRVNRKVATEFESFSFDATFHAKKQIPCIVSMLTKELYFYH
Experimental: Procaspase-3 was expressed and isolated exactly as above. Procaspase-3 was diluted to about 50 μg/mL in caspase assay buffer. […] After this incubation, an equal volume of load buffer (150 mM NaCl, 50 mM Tris, 2% SDS, 20% glycerol, pH 8.0) was added to each procaspase-3 sample. All samples were then stored at −80° C. until the time-course was completed. All samples were then incubated at 95° C. for 5 minutes and run on a 12% SDS-PAGE gel. Proteins were then transferred to nitrocellulose paper overnight. Blots were washed in TTBS (150 mM NaCl, 50 mM Tris, 0.1% Tween-20, pH 7.4) and blocked with a 10% milk solution for 2 hours. Blots were then incubated in a 1:5000 dilution of anti-Penta His Alexa Fluor 647 antibody for 2 hours. The blot was then washed with TTBS and scanned on a Typhoon fluorescence scanner (Amersham Biosciences, Sunnyvale Calif.).

HL-60 cells [3] = experiment: Apoptosis induction assay in HL-60 cells, 72 hrs (Table 6); type: cell-based; details: Homo sapiens
Experimental: Compounds DX1-DX17 were tested using the HL-60 cell line for the ability to effect apoptosis, and IC50 values were determined. Activity levels of compounds from assays of 72 hrs duration with HL-60 cells are shown in Table 6 and along with structures in FIG. 12.

[4] = system: NCI-H226 (lung cancer) xenograft; experiment: NCI-H226 xenograft, intraperitoneal PAC-1; type: in vivo, mice; details: i.p. 10 mg/kg
Experimental: A xenograft model was employed using NCI-H226 (lung cancer) cells. […] A comparison of efficacy was performed with gefitinib (Iressa™; AstraZeneca, Wilmington, Del.) at 40 mg/kg using 5 mice per group.

procaspase-7 = procaspase-7 (Homo sapiens (Human), UniProt P55210); details: read-out: EC50 for activation of procaspase-7
Chain of procaspase-7 (P55210 whole entry): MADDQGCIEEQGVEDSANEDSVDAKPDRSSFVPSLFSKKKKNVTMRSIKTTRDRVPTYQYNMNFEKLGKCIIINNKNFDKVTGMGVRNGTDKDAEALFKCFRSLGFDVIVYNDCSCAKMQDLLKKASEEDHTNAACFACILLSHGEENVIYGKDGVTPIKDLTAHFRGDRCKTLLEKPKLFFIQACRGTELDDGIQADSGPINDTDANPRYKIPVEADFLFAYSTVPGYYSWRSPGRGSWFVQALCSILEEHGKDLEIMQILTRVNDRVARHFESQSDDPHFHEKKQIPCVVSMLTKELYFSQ

HL-60 cells [5] = experiment: Cell death induction IC50 (MTS) in HL-60; type: cell-based, human
active caspase-3 = active caspase-3 (Homo sapiens (Human), UniProt P42574); experiment: Effect on fully processed caspase-3 enzyme; type: biochemical
Chain of active caspase-3 (P42574 29-175): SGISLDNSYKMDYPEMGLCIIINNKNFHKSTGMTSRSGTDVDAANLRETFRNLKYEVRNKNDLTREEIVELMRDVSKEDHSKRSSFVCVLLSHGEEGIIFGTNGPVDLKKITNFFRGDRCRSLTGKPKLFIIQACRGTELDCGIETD
Chain of active caspase-3 (P42574 176-277): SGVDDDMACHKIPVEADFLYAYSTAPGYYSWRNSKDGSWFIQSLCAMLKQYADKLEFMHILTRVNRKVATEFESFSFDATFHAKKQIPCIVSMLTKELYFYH
Experimental: Activation curves. The dose dependence of procaspase-3 activators was determined by adding various concentrations of compound to 90 μL of a 50 ng/mL procaspase-3, active caspase-3, procaspase-7 or active caspase-7 in caspase assay buffer in a 96-well plate. The plate was then incubated for 12 hours at 37° C. 10 μL of a 2 mM solution of Ac-DEVD-pNA (SEQ ID NO: 28) in caspase assay buffer was then added to each well. The plate was read every 2 minutes at 405 nm for 2 hours in a Spectra Max Plus 384 well plate reader. The slope of the linear portion for each well was determined and the fold increase in activation from non-treated control wells was calculated.

[6] = system: NCI-H226 (lung cancer) cells injected i.v.; experiment: NCI-H226 i.v. injection lung model, oral gavage; type: in vivo, mice; details: 100 mg/kg oral gavage days 1-4 and 7-11, 28 days
procaspase-3 [7] = molecular target: T1, procaspase-3; experiment: Effect of pH on PAC-1 activation of procaspase-3; type: biochemical; details: low pH values
Experimental: The plate was then incubated for 12 hours at 37° C. 10 μL of a 2 mM solution of Ac-DEVD-pNA (SEQ ID NO: 28) in caspase assay buffer was then added to each well. […] The slope of the linear portion for each well was determined and the fold increase in activation for each pH value was calculated.

HL-60 cells [8] = experiment: Annexin V staining (phosphatidylserine exposure); type: cell-based, human
Experimental: Cells were harvested by centrifugation and washed twice in PBS. The cells were then washed in AnnexinV binding buffer (10 mM HEPES, 140 mM NaCl, 2.5 mM CaCl2, pH 7.4) and resuspended in 100 μL of Annexin V binding buffer. 5 μL of annexin V, Alexa Fluor 488 conjugate was added and the tubes were incubated at room temperature for 15 minutes protected from light. 400 μL of Annexin V binding buffer was then added, followed by the addition of 1 μL of a 1 mg/mL solution of propidium iodide. The fluorescent intensity of each cell was determined by flow cytometry at 525 nm (green channel) and 675 nm (red channel). At least 50,000 cells were analyzed in each experiment.

[9] = Plasma PAC-1 content after pellet implantation; type: in vivo, mice; details: female, athymic BALB/c (nude), mouse, other: implantation of a pellet of PAC-1 and cholesterol, 5 mg pellet, after the 54 day experiment
Experimental: PAC-1 was evaluated in a mouse xenograft model using a slow release mode of drug delivery. In this model, subcutaneous tumors were formed in ovariectomized female athymic BALB/c (nude) mice using the ACHN (renal cancer) cell line. […] Tumor sizes were monitored for about 8 weeks. […] After the mice were sacrificed, plasma samples were taken from each mouse, and the PAC-1 content of each was analyzed.

[10] = system: ACHN (renal cancer) subcutaneous tumors; experiment: ACHN xenograft, PAC-1/cholesterol pellet; type: in vivo, mice
[11] = system: caspase-3 like activity in HL-60 cells; experiment: Caspase-3 like activity in HL-60 cells; type: cell-based, human; details: HL-60, 100 μM PAC-1
Experimental: In vivo determination of caspase-3 like activity. The amount of caspase-3 like protease activity was determined by the amount of Ac-DEVD-pNA (N-acetyl-ASP-Glu-Val-Asp-p-nitroanilide) (SEQ ID NO: 28) cleaved per minute by cell lysates. […] 50 μL of HL-60 cells at a concentration of 5×10^6 cells/mL were added to the plate and incubated for various times. After the incubation period, the plate was spun at 1000×g for 5 minutes to pellet the cells. The cells were then washed with 100 μL of PBS and resuspended in 150 μL of ice cold Caspase Assay Buffer. Each well was then sonicated to lyse the cells. 90 μL of cell lysate was transferred from each well into a new plate. Ac-DEVD-pNA (SEQ ID NO: 28) was added into each well to give a final concentration of 200 μM. […] The slope of the linear portion for each well was determined and the amount of Ac-DEVD-pNA (SEQ ID NO: 28) cleaved per minute was calculated.

Structure (SMILES): C=CCc1cccc(/C=N/NC(=O)CN2CCN(Cc3ccccc3)CC2)c1O [PAC-1]
- IC50 [1]: > 75000 nM
- effectiveness in procaspase-3 cleavage assay (procaspase-3 [2]; 5 μM): effective
- time to cleavage generating the p19 fragment (procaspase-3 [2]; 100 μM PAC-1): ≤ 1 h
- cleavage (processing) of procaspase-3 (procaspase-3 [2]; 100 μM PAC-1, after 4 hours): > 50%
- IC50 (HL-60 cells [3]): 2800 nM
- growth in tumor volume, NCI-H226 xenograft [4]: associated with reducing growth in tumor volume
- EC50 (procaspase-7): 4500 nM
- cell death induction in cancer cells in culture (in words) (HL-60 cells [5]): induce death in cancer cells
- IC50 (HL-60 cells [5]; Homo sapiens, HL-60, Table 3, read-out: IC50 (μM) for death induction in HL-60 cells): 0.92 µM
- effect on catalytic activity of fully processed caspase-3 enzyme (active caspase-3): no effect
- lung tumor mass, NCI-H226 i.v. injection model [6]: clear difference; also recorded: almost no visible gray matter
- effect of PAC-1 on procaspase-3 at low pH (procaspase-3 [7]): abolished
- effectiveness in Annexin-V assay (HL-60 cells [8]; 5 μM): effective
- phosphatidylserine exposure on the cell membrane (HL-60 cells [8]; HL-60, 20 h, 100 μM): considerable phosphatidylserine exposure
- concentration at 54 day [9]: 5 nM
- food consumption ([10]; last week of the experiment, 0, 1, 5 mg pellets): no difference in food consumption
- tumor growth, ACHN xenograft ([10]; pellet containing 5 mg of PAC-1, about 8 weeks): significantly retarded; also recorded: reduces the growth of tumors
- time to 50% activation of caspase-3-like activity [11]: over 2 hours
